According to patent US9242984B2, “Pyrazolyl derivatives as Syk inhibitors” (Merck Sharp & Dohme Corp., priority 2012, dated 2016):

Biological target: T1, recombinant human Syk (GST-hSyk fusion protein) (Homo sapiens, UniProt P43405)
T1 construct: purchased Carna Biosciences 08-176
Experiment: Homogeneous Time-Resolved Fluorescence (HTRF) assay for the recombinant human Syk enzyme
Format: biochemical
Settings: 10-dose titration, 25 μM ATP; read-out: rhSYK IC50
Summary of the method: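 GST-hSyk (5 pM) preincubated 10 min with compound (0.1% DMSO) in 15 mM Tris-HCl pH 7.5, 2 mM DTT; reaction started with 250 nM biotinylated peptide, 5 mM Mg, 25 μM ATP, 45 min, room temperature. EDTA quench, Eu-anti-phosphotyrosine/SA-APC HTRF read after 30 min; IC50 from 10-dose titration (10 μM–0.508 nM), four-parameter fit.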

SMILES	IC50 [nM]
Cc1cc(Nc2nccc(C(F)(F)F)n2)cc(-c2cnn(CC(O)c3ccccc3)c2)c1 (racemic) [Example 5.1, 2-(4-(3-methyl-5-((4-(trifluoromethyl)pyrimidin-2-yl)amino)phenyl)-1H-pyrazol-1-yl)-1-phenylethanol]	58.5
Cc1cc(Nc2nccc(C(F)F)n2)cc(-c2cnn(CC(C)(O)C(F)(F)F)c2)c1 (single isomer, unassigned) [Example 24.2, (S or R)-3-(4-(3-((4-(difluoromethyl)pyrimidin-2-yl)amino)-5-methylphenyl)-1H-pyrazol-1-yl)-1,1,1-trifluoro-2-methylpropan-2-ol]	6.2

Same assay, conditions: IC50 class; 10-dose titration, 25 μM ATP; read-out: rhSYK Activity

SMILES	IC50 [nM]
Cc1cc(Nc2nccc(C(F)(F)F)n2)cc(-c2cnn(CC(O)c3ccccc3)c2)c1 (racemic) [Example 5.1, 2-(4-(3-methyl-5-((4-(trifluoromethyl)pyrimidin-2-yl)amino)phenyl)-1H-pyrazol-1-yl)-1-phenylethanol]	≤ 100
Cc1cc(Nc2nccc(C(F)F)n2)cc(-c2cnn(C(C)C(C)(O)CO)c2)c1 (single isomer, unassigned) [Example 22.2, 3-(4-(3-((4-(Difluoromethyl)pyrimidin-2-yl)amino)-5-methylphenyl)-1H-pyrazol-1-yl)-2-methylbutane-1,2-diol]	≤ 100
Cc1cc(Nc2cc(C(F)(F)F)ccn2)nc(-c2cnn(CC(O)c3ccc(C(N)=O)cc3)c2)c1 (centres unmarked) [Example 6.16, 4-{1-hydroxy-2-[4-(4-methyl-6-{[4-(trifluoromethyl)-pyridin-2-yl]amino}-pyridin-2-yl)-1H-pyrazol-1-yl]ethyl}-benzamide]	≤ 100
CC(=O)C(C)n1cc(-c2cc(C)cc(Nc3nccc(C(F)F)n3)c2)cn1 (centres unmarked) [Example 3.98, 3-[4-(3-{[4-(difluoromethyl)pyrimidin-2-yl]amino}-5-methylphenyl)-1H-pyrazol-1-yl]butan-2-one]	≤ 100
COc1ccnc(Nc2cc(C)cc(-c3cnn(C[C@H](O)C(N)=O)c3)c2)n1 [Example 6.4, (2S)-2-hydroxy-3-(4-{3-[(4-methoxypyrimidin-2-yl)amino]-5-methylphenyl}-1H-pyrazol-1-yl)propanamide]	≤ 100
O=C1NCC(Cn2cc(-c3cccc(Nc4cc(C(F)F)ccn4)n3)cn2)O1 (centres unmarked) [Example 3.84, 5-{[4-(6-{[4-(difluoromethyl)pyridin-2-yl]amino}pyridin-2-yl)-1H-pyrazol-1-yl]methyl}-1,3-oxazolidin-2-one]	≤ 100
Cc1cc(Nc2nccc(C(F)(F)F)n2)cc(-c2cnn(CC3OC(=O)NC3C(C)C)c2)c1 (single isomer, unassigned) [Example 23.3, 4-(1-methylethyl)-5-{[4-(3-methyl-5-{[4-(trifluoromethyl)pyrimidin-2-yl]amino}phenyl)-1H-pyrazol-1-yl]methyl}-1,3-oxazolidin-2-one]	≤ 100
O=C1NCC(Cn2cc(-c3cccc(Nc4nccc(C(F)F)n4)c3)cn2)O1 (centres unmarked) [Example 2.65, 5-{[4-(3-{[4-(difluoromethyl)pyrimidin-2-yl]amino}phenyl)-1H-pyrazol-1-yl]methyl}-1,3-oxazolidin-2-one]	≤ 100
Cc1cc(Nc2nccc(OCCO)n2)cc(-c2cnn(CCC(N)=O)c2)c1 [Example 3.38, 3-[4-(3-{[4-(2-hydroxyethoxy)pyrimidin-2-yl]amino}-5-methylphenyl)-1H-pyrazol-1-yl]propanamide]	≤ 100
Cc1cc(Nc2nccc(C(F)F)n2)cc(-c2cnn(CC(C)(O)CC#N)c2)c1 (centres unmarked) [Example 20.8, 4-[4-(3-{[4-(difluoromethyl)pyrimidin-2-yl]amino}-5-methylphenyl)-1H-pyrazol-1-yl]-3-hydroxy-3-methylbutanenitrile]	≤ 100
Cc1cc(Nc2cc(C(F)F)ccn2)nc(-c2cnn(C(C)C3CNC(=O)O3)c2)c1 (centres unmarked) [Example 3.87, 5-{1-[4-(6-{[4-(difluoromethyl)pyridin-2-yl]amino}-4-methylpyridin-2-yl)-1H-pyrazol-1-yl]ethyl}-1,3-oxazolidin-2-one]	≤ 100
Cc1cc(Nc2nccc(C(F)(F)F)n2)cc(-c2cnn(C3CCC(C(=O)O)CC3)c2)c1 (centres unmarked) [Example 1.56, 4-[4-(3-methyl-5-{[4-(trifluoromethyl)pyrimidin-2-yl]amino}phenyl)-1H-pyrazol-1-yl]cyclohexanecarboxylic acid]	≤ 100
Cc1cc(Nc2nccc(C(F)(F)F)n2)cc(-c2cnn(CCC(N)=O)c2)c1 [Example 3.3]	≤ 100
CCOC(=O)CCn1cc(-c2cc(C)cc(Nc3cc(C)ccn3)n2)cn1 [Example 1.26, ethyl 3-(4-{4-methyl-6-[(4-methylpyridin-2-yl)amino]pyridin-2-yl}-1H-pyrazol-1-yl)propanoate]	100 to 1000
COC(=O)CCCn1cc(-c2cc(C)cc(Nc3nccc(C(F)(F)F)n3)c2)cn1 [Example 3.49, methyl 4-[4-(3-methyl-5-{[4-(trifluoromethyl)-pyrimidin-2-yl]amino}-phenyl)-1H-pyrazol-1-yl]butanoate]	≤ 100
Cc1cc(Nc2cc(C(F)F)ccn2)nc(-c2cnn(C(C)C3CNC(=O)O3)c2)c1 (centres unmarked) [Example 3.88, 5-{1-[4-(6-{[4-(difluoromethyl)pyridin-2-yl]amino}-4-methylpyridin-2-yl)-1H-pyrazol-1-yl]ethyl}-1,3-oxazolidin-2-one]	≤ 100
Cc1cc(Nc2nccc(C(F)F)n2)cc(-c2cnn(CCNS(=O)(=O)C3CC3)c2)c1 [Example 27.13, N-{2-[4-(3-{[4-(difluoromethyl)pyrimidin-2-yl]amino}-5-methylphenyl)-1H-pyrazol-1-yl]ethyl}cyclopropanesulfonamide]	≤ 100
Cc1cc(Nc2nccc(C(C)F)n2)cc(-c2cnn(C[C@H](O)C(N)=O)c2)c1 (stereo partly drawn) [Example 6.8, (2S)-3-[4-(3-{[4-(1-fluoroethyl)-pyrimidin-2-yl]amino}-5-methylphenyl)-1H-pyrazol-1-yl]-2-hydroxy-propanamide]	≤ 100
Cc1cc(Nc2nccc(C(F)F)n2)cc(-c2cnn(C(C[C@@H](C)O)[C@@H](C)O)c2)c1 (stereo in doubt) [Example 2.56, 3-[4-(3-{[4-(difluoromethyl)pyrimidin-2-yl]amino}-5-methylphenyl)-1H-pyrazol-1-yl]hexane-2,5-diol]	≤ 100
C[C@@](O)(CO)Cn1cc(-c2cccc(Nc3nccc(C(F)(F)F)n3)c2)cn1 [Example 2.86, (2S)-2-methyl-3-[4-(3-{[4-(trifluoromethyl)pyrimidin-2-yl]amino}phenyl)-1H-pyrazol-1-yl]propane-1,2-diol]	≤ 100
Cc1cc(Nc2nccc(C(F)F)n2)cc(-c2cnn(CC(C)(O)C(F)(F)F)c2)c1 (single isomer, unassigned) [Example 24.2, (S or R)-3-(4-(3-((4-(difluoromethyl)pyrimidin-2-yl)amino)-5-methylphenyl)-1H-pyrazol-1-yl)-1,1,1-trifluoro-2-methylpropan-2-ol]	≤ 100
Cc1cc(Nc2nccc(C(C)(F)F)n2)cc(-c2cnn(CC3OC(=O)NC3C)c2)c1 (single isomer, unassigned) [Example 23.12, 5-{[4-(3-{[4-(1,1-difluoroethyl)pyrimidin-2-yl]amino}-5-methylphenyl)-1H-pyrazol-1-yl]methyl}-4-methyl-1,3-oxazolidin-2-one]	≤ 100
Cc1cc(Nc2nccc(C(F)F)n2)cc(-c2cnn(CC(C)(O)C(C)(C)O)c2)c1 (centres unmarked) [Example 21.6, 1-[4-(3-{[4-(difluoromethyl)pyrimidin-2-yl]amino}-5-methylphenyl)-1H-pyrazol-1-yl]-2,3-dimethylbutane-2,3-diol]	≤ 100
Cc1cc(Nc2nccc(C(F)(F)F)n2)cc(-c2cnn(CC3CCO3)c2)c1 (centres unmarked) [Example 3.18, N-{3-methyl-5-[1-(oxetan-2-ylmethyl)-1H-pyrazol-4-yl]-phenyl}-4-(trifluoro-methyl)-pyrimidin-2-amine]	≤ 100
